For orientation: DC50 means the concentration at which degradation of the target reaches its halfway point.

The target of this test is T1, WT BTK protein (Homo sapiens, UniProt Q06187).
T1 construct: measured for intracellular BTK protein levels by Western blotting; endogenous in cells; host or cells: TMD-8 or RAMOS cells
T1 sequence (Q06187 whole entry): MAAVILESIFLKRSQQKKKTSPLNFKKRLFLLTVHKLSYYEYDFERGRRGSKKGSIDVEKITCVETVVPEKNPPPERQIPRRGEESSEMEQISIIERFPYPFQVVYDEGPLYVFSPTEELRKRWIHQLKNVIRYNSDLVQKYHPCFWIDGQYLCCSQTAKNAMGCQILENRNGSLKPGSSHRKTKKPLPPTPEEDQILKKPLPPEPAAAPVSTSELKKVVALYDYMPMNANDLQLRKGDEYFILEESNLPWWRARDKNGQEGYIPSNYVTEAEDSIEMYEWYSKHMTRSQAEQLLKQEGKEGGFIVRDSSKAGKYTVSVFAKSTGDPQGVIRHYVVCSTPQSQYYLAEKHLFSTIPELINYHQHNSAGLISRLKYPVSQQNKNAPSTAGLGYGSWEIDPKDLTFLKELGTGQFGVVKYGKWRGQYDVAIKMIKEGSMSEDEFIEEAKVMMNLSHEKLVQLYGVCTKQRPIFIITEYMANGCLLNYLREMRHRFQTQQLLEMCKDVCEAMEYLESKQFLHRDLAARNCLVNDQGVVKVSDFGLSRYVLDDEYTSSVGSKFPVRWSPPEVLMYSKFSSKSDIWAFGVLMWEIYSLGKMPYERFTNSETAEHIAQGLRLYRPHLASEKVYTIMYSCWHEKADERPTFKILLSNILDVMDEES
In words: BTK protein degradation assay (Western blotting), WT BTK. It is filed as cell-based. The conditions noted are these: concentration range accounting for 50% degradation of WT BTK protein, TMD-8 or RAMOS cells, 24 hours. The method, boiled down:
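BTK levels were read by Western blotting (GAPDH and β-actin normalisers) in RIPA lysates of TMD-8 cells exposed to compounds for 24 h at 1×10^6 cells/mL. Results scored in ranges of the concentration producing 50% loss of WT BTK.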
For orientation: In western blotting, separated proteins are transferred to a membrane and probed.
For `Cc1cccc(C)c1Nc1nn(C)c2nc(Nc3ccc(C4CCN(C(=O)CN5CCN(c6ccc7c(c6)C(=O)N(C6CCC(=O)NC6=O)C7=O)CC5)CC4)c(F)c3)ncc12` (stereo not drawn) [Compound 226, 5-(4-(2-(4-(4-((3-((2,6-Dimethylphenyl)amino)-1-methyl-1H-pyrazolo[3,4-d]pyrimidin-6-yl)amino)-2-fluorophenyl)piperidin-1-yl)-2-oxoethyl)piperazin-1-yl)-2-(2,6-dioxopiperidin-3-yl)isoindoline-1,3-dione], the DC50 was in the range of 0.1 to 10 nM.
With `Cc1cccc(C)c1Nc1nn(C)c2nc(Nc3ccc(C4CCN(CC5CCN(c6cc7c(cc6F)C(=O)N(C6CCC(=O)NC6=O)C7)CC5)CC4)cc3)ncc12` (stereo not drawn) [Compound 272, 3-(5-(4-((4-(4-((3-((2,6-dimethylphenyl)amino)-1-methyl-1H-pyrazolo[3,4-d]pyrimidin-6-yl)amino)phenyl)piperidin-1-yl)methyl)piperidin-1-yl)-6-fluoro-1-oxoisoindolin-2-yl)piperidin-2,6-one] the figure was 0.1 to 10 nM; with `Cc1cccc(C)c1Nc1nn(C)c2nc(Nc3ccc4c(c3)CN(CC3CCN(c5ccc6c(n5)CN(C5CCC(=O)NC5=O)C6=O)CC3)CC4)ncc12` (stereo not drawn) [Compound 132, 3-(2-(4-((7-((3-((2,6-dimethylphenyl)amino)-1-methyl-1H-pyrazolo[3,4-d]pyrimidin-6-yl)amino)-3,4-dihydroisoquinolin-2 (1H)-yl)methyl)piperidin-1-yl)-5-oxo-5,7-dihydro-6H-pyrrolo[3,4-b]pyridin-6-yl)piperidin-2,6-one], 0.1 to 10 nM; with `Cc1cccc(C)c1Nc1nn(C)c2nc(Nc3ccc4c(c3)C(C)N(CC3CCN(c5ccc6c(c5)C(=O)N(C5CCC(=O)NC5=O)C6=O)CC3)CC4)ncc12` (stereo not drawn) [Compound 75, 5-(4-((7-((3-((2,6-Dimethylphenyl)amino)-1-methyl-1H-pyrazolo[3,4-d]pyrimidin-6-yl)amino)-1-methyl-3,4-dihydroisoquinolin-2 (1H)-yl)methyl)piperidin-1-yl)-2-(2,6-dioxopiperidin-3-yl)isoindoline-1,3-dione], 10 to 1000 nM.
With `Cn1nc(Nc2c(Cl)cccc2Br)c2cnc(Nc3ccc4c(c3)CN(CC3CCN(c5ccc6c(c5)C(=O)N(C5CCC(=O)NC5=O)C6=O)CC3)CC4)nc21` (stereo not drawn) [Compound 218, 5-(4-((7-((3-((2-Bromo-6-chlorophenyl)amino)-1-methyl-1H-pyrazolo[3,4-d]pyrimidin-6-yl)amino)-3,4-dihydroisoquinolin-2 (1H)-yl)methyl)piperidin-1-yl)-2-(2,6-dioxopiperidin-3-yl)isoindoline-1,3-dione], the DC50 was 0.1 to 10 nM.
With `Cc1cccc(C)c1Nc1nn(C)c2nc(Nc3ccc4c(c3)CN(C(=O)C3(F)CCN(C(=O)CNc5ccc6c(c5)C(=O)N(C5CCC(=O)NC5=O)C6=O)CC3)CC4)ncc12` (stereo not drawn) [Compound 247, 5-((2-(4-(7-((3-((2,6-Dimethylphenyl)amino)-1-methyl-1H-pyrazolo[3,4-d]pyrimidin-6-yl)amino)-1,2,3,4-tetrahydroisoquinoline-2-carbonyl)-4-fluoropiperidin-1-yl)-2-oxoethyl)amino)-2-(2,6-dioxopiperidin-3-yl)isoindoline-1,3-dione] the figure was 0.1 to 10 nM.
With `Cc1cccc(C)c1Nc1nn(C)c2nc(Nc3ccc(N4CCN(CC5CN(c6ccc7c(n6)CN(C6CCC(=O)NC6=O)C7=O)C5)CC4)cc3)ncc12` (stereo not drawn) [Compound 187, 3-(2-(3-((4-(4-((3-((2,6-Dimethylphenyl)amino)-1-methyl-1H-pyrazolo[3,4-d]pyrimidin-6-yl)amino)phenyl)piperazin-1-yl)methyl)azetidin-1-yl)-5-oxo-5,7-dihydro-6H-pyrrolo[3,4-b]pyridin-6-yl)piperidin-2,6-one], the DC50 was 0.1 to 10 nM.
The same measure for `Cc1cccc(C)c1Nc1nn(C)c2nc(Nc3ccc(N4CCN(C[C@H]5CCCN(c6ccc7c(c6)C(=O)N(C6CCC(=O)NC6=O)C7=O)C5)CC4)nc3)ncc12` (stereo partly drawn) [Compound 160, 5-((R)-3-((4-(5-((3-((2,6-Dimethylphenyl)amino)-1-methyl-1H-pyrazolo[3,4-d]pyrimidin-6-yl)amino)pyridin-2-yl)piperazin-1-yl)methyl)piperidin-1-yl)-2-(2,6-dioxopiperidin-3-yl)isoindoline-1,3-dione]: 0.1 to 10 nM.
With `Cc1cccc(C)c1Nc1nn(C)c2nc(Nc3ccc4c(c3)CN(CC(=O)Nc3ccc5c(c3)CN(C3CCC(=O)NC3=O)C5=O)CC4)ncc12` (stereo not drawn) [Compound 108, 2-(7-((3-((2,6-Dimethylphenyl)amino)-1-methyl-1H-pyrazolo[3,4-d]pyrimidin-6-yl)amino)-3,4-dihydroisoquinolin-2 (1H)-yl)-N-(2-(2,6-dioxopiperidin-3-yl)-1-oxoisoindolin-5-yl)acetamide] the figure was 0.1 to 10 nM.
With `Cc1cccc(C)c1Nc1nn(C)c2nc(Nc3ccc(CCNC(=O)C4CCN(CC(=O)Nc5ccc6c(c5)C(=O)N(C5CCC(=O)NC5=O)C6=O)CC4)cc3)ncc12` (stereo not drawn) [Compound 101, N-(4-((3-((2,6-dimethylphenyl)amino)-1-methyl-1H-pyrazolo[3,4-d]pyrimidin-6-yl)amino)phenethyl)-1-(2-((2-(2,6-dioxopiperidin-3-yl)-1,3-dioxoisoindolin-5-yl)amino)-2-oxoethyl)piperidine-4-carboxamide] the figure was 10 to 1000 nM.
Turning to `Cc1cccc(C)c1Nc1nn(C)c2nc(Nc3ccc4c(c3)CN(CC(=O)N3CCN(c5ccc6c(c5)C(=O)N(C5CCC(=O)NC5=O)C6=O)CC3)CC4)ncc12` (stereo not drawn) [Compound 95, 5-(4-(2-(7-((3-((2,6-dimethylphenyl)amino)-1-methyl-1H-pyrazolo[3,4-d]pyrimidin-6-yl)amino)-3,4-dihydroisoquinolin-2 (1H)-yl)acetyl)piperazin-1-yl)-2-(2,6-dioxopiperidin-3-yl)isoindoline-1,3-dione], the 50% degradation concentration (DC50) was in the range of 10 to 1000 nM.
For `Cc1cccc(C)c1Nc1nn(C)c2nc(Nc3ccc(C4CCN(CC5CCN(c6ccc7c(c6)C(=O)N(C6CCC(=O)NC6=O)C7=O)CC5)CC4)cc3)ncc12` (stereo not drawn) [Compound 165, 5-(4-((4-(4-((3-((2,6-Dimethylphenyl)amino)-1-methyl-1H-pyrazolo[3,4-d]pyrimidin-6-yl)amino)phenyl)piperidin-1-yl)methyl)piperidin-1-yl)-2-(2,6-dioxopiperidin-3-yl)isoindoline-1,3-dione], the DC50 is 0.1 to 10 nM.
With `Cc1cccc(C)c1Nc1nn(C)c2nc(Nc3ccc4c(c3)CN(CC3CN(C(=O)C5CCN(c6ccc7c(c6)C(=O)N(C6CCC(=O)NC6=O)C7=O)CC5)C3)CC4)ncc12` (stereo not drawn) [Compound 40, 5-(4-(3-((7-((3-((2,6-Dimethylphenyl)amino)-1-methyl-1H-pyrazolo[3,4-d]pyrimidin-6-yl)amino)-3,4-dihydroisoquinolin-2 (1H)-yl)methyl)azetidine-1-carbonyl)piperidin-1-yl)-2-(2,6-dioxopiperidin-3-yl)isoindoline-1,3-dione] the figure was 0.1 to 10 nM.
The same measure for `Cc1cccc(C)c1Nc1nn(C)c2nc(Nc3ccc4c(c3)CN(C3CCN(C[C@H]5CCCN(c6ccc7c(c6)C(=O)N(C6CCC(=O)NC6=O)C7=O)C5)CC3)CC4)ncc12` (stereo partly drawn) [Compound 140, 5-((R)-3-((4-(7-((3-((2,6-dimethylphenyl)amino)-1-methyl-1H-pyrazolo[3,4-d]pyrimidin-6-yl)amino)-3,4-dihydroisoquinolin-2 (1H)-yl)piperidin-1-yl)methyl)piperidin-1-yl)-2-(2,6-dioxopiperidin-3-yl)isoindoline-1,3-dione]: 0.1 to 10 nM; for `Cc1cccc(C)c1Nc1nn(C)c2nc(Nc3ccc4c(c3)CN(C3CCN(CC5CCN(c6ccc7c(c6)C(=O)N(C6CCC(=O)NC6=O)C7=O)CC5)CC3)CC4)ncc12` (stereo not drawn) [Compound 139, 5-(4-((4-(7-((3-((2,6-Dimethylphenyl)amino)-1-methyl-1H-pyrazolo[3,4-d]pyrimidin-6-yl)amino)-3,4-dihydroisoquinolin-2 (1H)-yl)piperidin-1-yl)methyl)piperidin-1-yl)-2-(2,6-dioxopiperidin-3-yl)isoindoline-1,3-dione]: 0.1 to 10 nM.
Turning to `Cc1cccc(C)c1Nc1nn(C)c2nc(Nc3ccc4c(c3)CN(CC3CCN(C(=O)CNc5ccc6nnn(C7CCC(=O)NC7=O)c(=O)c6c5)CC3)CC4)ncc12` (stereo not drawn) [Compound 52, 3-(6-((2-(4-((7-((3-((2,6-Dimethylphenyl)amino)-1-methyl-1H-pyrazolo[3,4-d]pyrimidin-6-yl)amino)-3,4-dihydroisoquinolin-2 (1H)-yl)methyl)piperidin-1-yl)-2-oxoethyl)amino)-4-oxobenzo[d][1,2,3]triazin-3 (4H)-yl)piperidin-2,6-one], the DC50 fell in the range of 0.1 to 10 nM.
With `Cc1cccc(C)c1Nc1nn(C)c2nc(Nc3ccc4c(c3)CCN(C[C@H]3CCN(c5ccc6c(c5)C(=O)N(C5CCC(=O)NC5=O)C6=O)C3)C4)ncc12` (stereo partly drawn) [Compound 173, 5-((R)-3-((6-((3-((2,6-Dimethylphenyl)amino)-1-methyl-1H-pyrazolo[3,4-d]pyrimidin-6-yl)amino)-3,4-dihydroisoquinolin-2 (1H)-yl)methyl)pyrrolidin-1-yl)-2-(2,6-dioxopiperidin-3-yl)isoindoline-1,3-dione], the DC50 lay within 0.1 to 10 nM.
With `Cc1cccc(C)c1Nc1nn(C)c2nc(Nc3ccc4c(c3)CN(CC3CCN(C5CN(c6ccc7c(c6)C(=O)N(C6CCC(=O)NC6=O)C7=O)C5)CC3)CC4)ncc12` (stereo not drawn) [Compound 147, 5-(3-(4-((7-((3-((2,6-Dimethylphenyl)amino)-1-methyl-1H-pyrazolo[3,4-d]pyrimidin-6-yl)amino)-3,4-dihydroisoquinolin-2 (1H)-yl)methyl)piperidin-1-yl)azetidin-1-yl)-2-(2,6-dioxopiperidin-3-yl)isoindoline-1,3-dione] the figure was 0.1 to 10 nM.

Values taken from patent publication US12161722B2, “Bifunctional heterocyclic compound having BTK degradation function via ubiquitin proteasome pathway, and use thereof” (KOREA RESEARCH INSTITUTE OF CHEMICAL TECHNOLOGY, priority 2021, dated 2024).
